One series deals with tumor. Particulars: nude mouse tumor model (Teicher et al. 2002); cited from earlier work.
For the next series, the system named is MEK1/2. The method, then:
Experiments were performed to identify the TASK121 downstream signals that are important for TASK122 expression. A375, 928-MEL, COL0205 and SK23-MEL cell lines were characterized for TASK121 and RAS activating mutations and TASK122 expression was measured by immunoblotting of these tumors cells when cultured in the presence or absence of the MEK1/2 inhibitor, U0126 (Favata et al., J Biol Chem 273:18623-32 (1998)).

In the next series the target is ΔTASK121-ER (Mus musculus, UniProt P19785, G525R). The following applies: NIH 3T3 ΔTASK121-ER cells, minimal media, 0-2000 nM 4OHT for 24 hours. The text has this: (§1) To identify genes that are regulated specifically in response to TASK121 activation and not as a result of full mitogenic stimulation, TASK121 was conditionally activated using the previously described estrogen receptor (ER) fusion protein system (Samuels et al., Mol Cell Biol 13:6241-52 (1993)). The catalytic domains of wild-type and oncogenic human TASK121 (denoted as ΔTASK121 and ΔTASK121^V600E, respectively) were fused to a variant of the murine ER hormone-binding domain in which a G525R mutation switches responsiveness from endogenous estrogen to a synthetic antagonist, 4-hydroxytamoxifen (4OHT) (Danielian, et al., Mol Endocrinol 7:232-40 (1993)). […] NIH 3T3 cells expressing ΔTASK121-ER, ΔTASK121^V600E-ER or empty vector were derived by retroviral infection and several independent clones were characterized to ensure against a clonal selection bias. To determine effective doses for inducing TASK121 kinase activity, ΔTASK121-ER and ΔTASK121^V600EER cells were cultured in minimal media and stimulated with 0-2000 nM 4OHT for 24 hours. […] Accumulation of ΔTASK121-ER and ΔTASK121^V600E-ER chimeric proteins and corresponding ERK1/2 phosphorylation were detected by immunoblotting.

A further series addresses ΔTASK121^V600E-ER (Mus musculus, UniProt P19785, G525R). The following applies: NIH 3T3 ΔTASK121^V600E-ER cells, minimal media, 0-2000 nM 4OHT for 24 hours.
Excerpt: as §1

For another series, the system named is ΔTASK121^V600E-ER cells. In words: Morphological transformation of 3T3 cells upon 4OHT induction. Format: cell-based. Particulars: 200 nM 4OHT, within 24 hours.
In a further series the test system is endogenous TASK121. Kind of series: Dox-induced shRNA knockdown in A375 melanoma cells, immunoblotting. Format: cell-based. From the text: The regulation of TASK122 by TASK 121 was directly addressed in an RNAi knockdown experiment. A375 melanoma cells, which contain an endogenous TASK121^V600E allele, were infected with a retrovirus expressing either TASK121 specific shRNAs or a control firefly Luciferase shRNA. Hairpin oligonucleotides used in this study are as follows:
In this system, the Tet repressor protein binds a modified polIII promoter thereby preventing shRNA expression. However, in the presence of a tetracycline analog, doxycycline (Dox), the Tet repressor protein is released from the promoter resulting in shRNA transcription and knockdown of endogenous TASK121 or luciferase expression.

[1] abbreviates: 10 μM U0126, A375, 928-MEL, COL0205 and SK23-MEL cell lines.

Data on five molecules can be found in patent US20100034836A1, “COMPOSITIONS AND METHODS FOR THE DIAGNOSIS AND ALLEVIATION OF TUMOR” (priority 2006, published 2010).

ΔTASK121-ER, sequence (P19785 315-551 G525R limits assumed): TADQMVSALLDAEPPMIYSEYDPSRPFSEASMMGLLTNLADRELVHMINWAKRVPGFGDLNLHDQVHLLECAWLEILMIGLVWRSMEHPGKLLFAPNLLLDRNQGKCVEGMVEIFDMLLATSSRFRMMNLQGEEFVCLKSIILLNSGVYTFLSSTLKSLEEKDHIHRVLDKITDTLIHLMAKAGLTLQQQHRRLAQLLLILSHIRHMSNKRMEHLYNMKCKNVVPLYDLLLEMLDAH
ΔTASK121-ER, sequence (P15056 457-717 partner limits assumed): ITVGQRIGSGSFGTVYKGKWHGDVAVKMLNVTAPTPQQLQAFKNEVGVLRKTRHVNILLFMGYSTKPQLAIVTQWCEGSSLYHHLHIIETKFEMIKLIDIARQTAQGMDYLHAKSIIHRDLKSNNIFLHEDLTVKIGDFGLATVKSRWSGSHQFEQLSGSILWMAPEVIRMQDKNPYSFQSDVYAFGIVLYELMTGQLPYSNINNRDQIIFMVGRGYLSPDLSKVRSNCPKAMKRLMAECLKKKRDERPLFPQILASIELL
ΔTASK121^V600E-ER, sequence (P19785 315-551 G525R): as the sequence (P19785 315-551 G525R limits assumed) above
ΔTASK121^V600E-ER, sequence (P15056 457-717 V600E partner limits assumed): as the sequence (P15056 457-717 partner limits assumed) above, with V144E counted along it

With `Cl.Cn1cc(C2=C(c3cn(C4CCN(Cc5ccccn5)CC4)c4ccccc34)C(=O)NC2=O)c2ccccc21` [317615-HCL], the anti-tumor effect result in the series with tumor is “anti-tumor effect”.

In the case of `N#CC(=C(/N)Sc1ccccc1N)/C(C#N)=C(\N)Sc1ccccc1N` [U0126], the TASK122 expression entry in the series with MEK1/2 (10 μM U0126, inhibition of ERK1/2 phosphorylation) is “abolished”. Besides, in the series on MEK1/2 (setting [1]), the ERK1/2 phosphorylation entry is on record as “decreased” and the “total ERK2 levels” value is reported as “unaffected”.

On to 4-hydroxytamoxifen [4OHT], for which the “4OHT concentration at which TASK121-mediated signaling was maximal” value is given as 100 nM at ΔTASK121-ER and 10 nM at ΔTASK121^V600E-ER. Further, the cell morphology entry in the series on ΔTASK121^V600E-ER cells is “refractile and spindle-shaped phenotype”.

B1: TASK121 shRNA: hairpin oligonucleotides SEQ ID NO: 7 (sense) and SEQ ID NO: 8 (antisense), retrovirally expressed, Tet-regulated (nucleic acid)
sense: GATCCCCAGAATTGGATCTGGATCATTTCAAGAGAATGATCCAGATCCAATTCTTTTTTTGGAAA
antisense: AGCTTTTCCAAAAAAAGAATTGGATCTGGATCATTCTCTTGAAATGATCCAGATCCAATTCTGGG
modifications: the letters are possibly those of the target site
B1: in the series with endogenous TASK121, the TASK122 levels entry is “significant reduction”, the “phosphorylated ERK1/2” value is on record as “significant reduction” and the “total ERK2 levels” value is given as “remained unchanged”.

B2: Luciferase shRNA: control firefly Luciferase shRNA, SEQ ID NO: 9 (sense) and 10 (antisense) (nucleic acid)
sense: GATCCCCCTTACGCTGAGTACTTCGATTCAAGAGATCGAAGTACTCAGCGTAAGTTTTTTGGAAA
antisense: AGCTTTTCCAAAAAACTTACGCTGAGTACTTCGATCTCTTGAATCGAAGTACTCAGCGTAAGGGG
modifications: the letters are possibly those of the target site
As to B2, the TASK122 levels entry in the series with endogenous TASK121 is recorded as “did not alter”.
